From paper PMC8994671 (ACS infectious diseases, 2017)
Values after ≈ are worked out from the molar mass of the structure shown. Like-named read-outs stand apart in the source and are kept apart here.

Key:
[1] = system: C. neoformans; experiment: In vitro antifungal susceptibility testing; assay type: cell-based, Cryptococcus neoformans; details: for MIC: Cryptococcus neoformans, read-out: C. neoformans MIC; for C. neoformans MIC: Table 1, highest value of at least three biological replicates
[2] = system: C. albicans; experiment: In vitro antifungal susceptibility testing; assay type: cell-based; details: Candida albicans, SC5314, read-out: C. albicans MIC
[3] = system: calmodulin-dependent localization of Crz1; experiment: Crz1 nuclear translocation assay; assay type: cell-based, Cryptococcus neoformans; details: shift to 37°C
[4] = system: calmodulin-dependent localization of Crz1; details: assay validation; cited from earlier work
[5] = system: C. albicans; details: cited from earlier work

Q: Which MIC [1] does the source give for `CN1CCN(CCCN2c3ccccc3Sc3ccc(C(F)(F)F)cc32)CC1` [Trifluoperazine, TFP (8), Trifluoperazine] here?
A: Its MIC is 16 µg/mL (≈ 39.3 µM).

Q: And the “C. neoformans MIC” value [1]?
A: The value was 16 µg/mL.

Q: What about the MIC [2] of the same compound?
A: Its MIC is greater than 32 µg/mL.

Q: What about the “Effect on Crz1 localization” value ([3]; higher concentrations than 2 μg/mL, Fig. 1B) of the same compound?
A: Its value is “reduce localization significantly”.

Q: And the “Effect on Crz1 localization” value ([3]; sub-inhibitory concentration 2 μg/mL)?
A: Its value is “fail to affect Crz1 localization”.

Q: And the “Effect on nuclear localization of Crz1” value [4]?
A: Its value is “reduce nuclear localization of Crz1”.

Q: With `CC/C(=C(\c1ccccc1)c1ccc(OCCN(C)C)cc1)c1ccccc1` [tamoxifen] as the compound, how does the “Effect on nuclear localization of Crz1” value [4] read?
A: The value was “reduce nuclear localization of Crz1”.

Q: With `CN1CCN(CCCN2c3ccccc3Sc3ccc(Cl)cc32)CC1` [Prochlorperazine (7), Prochlorperazine] as the compound, how does the MIC [1] read?
A: Its MIC is 64 µg/mL (≈ 171 µM).

Q: Which “C. albicans MIC” value ([5]; strain SC5314) does the source give for `OC(Cn1cncn1)(Cn1cncn1)c1ccc(F)cc1F` [FLU, Fluconazole] here?
A: Its value is 0.25 µg/mL.

Q: What about the “C. albicans MIC” value ([5]; strain TWO7229) of the same compound?
A: Its value is 0.25 µg/mL.

Q: And the “C. albicans MIC” value ([5]; strain TWO7230)?
A: The value was 2 µg/mL.

Q: What about the “C. albicans MIC” value ([5]; strain TWO7241) of the same compound?
A: Its value is 16 µg/mL.

Q: What about the “C. albicans MIC” value ([5]; strain TWO7243) of the same compound?
A: Its value is 128 µg/mL.

Q: Which MIC [1] does the source give for `CN(C)CCCN1c2ccccc2Sc2ccc(C(F)(F)F)cc21` [Triflupromazine (4), Triflupromazine] here?
A: Its MIC is 32 µg/mL (≈ 90.8 µM).

Q: For `CCN(CC)CCCCN1c2ccccc2Oc2ccc(Cl)cc21` [Compound 12], which “C. neoformans MIC” value [1] is on record?
A: The value was 8 µg/mL.

Q: With `OCCN1CCN(CCCN2c3ccccc3Sc3ccc(C(F)(F)F)cc32)CC1` [Fluphenazine (10), Fluphenazine] as the compound, how does the MIC [1] read?
A: The MIC was 8 µg/mL (≈ 18.3 µM).

Q: What about the “C. neoformans MIC” value [1] of the same compound?
A: The value was 8 µg/mL.

Q: For `C=CC[C@@H]1/C=C(\C)C[C@H](C)C[C@H](OC)[C@H]2O[C@@](O)(C(=O)C(=O)N3CCCC[C@H]3C(=O)O[C@H](/C(C)=C/[C@@H]3CC[C@@H](O)[C@H](OC)C3)[C@H](C)[C@@H](O)CC1=O)[C@H](C)C[C@@H]2OC` [FK506], which “Effect on nuclear localization of Crz1” value [4] is on record?
A: The value was “reduce nuclear localization of Crz1”.

Q: For `CN(C)CCCN1c2ccccc2Sc2ccccc21` [Promazine (2), Promazine], which MIC [1] is on record?
A: The MIC was 64 µg/mL (≈ 225 µM).

Q: For `CN(C)CCCN1c2ccccc2Sc2ccc(Cl)cc21` [Chlorpromazine (3), Chlorpromazine], which MIC [1] is on record?
A: Its MIC is 25 µg/mL (≈ 78.4 µM).

Q: What does the source list for `CSc1ccc2c(c1)N(CCC1CCCCN1C)c1ccccc1S2` (stereo not shown) [Thioridazine, THZ (1), Thioridazine]?
A: MIC [1]: 16 µg/mL (≈ 43.2 µM); C. neoformans MIC [1]: 16 µg/mL
